Test results taken from patent US8163805B2, “Small molecule antagonists of Bcl-2 family proteins” (The Regents of the University of Michigan, priority 2001, dated 2012).
Where two headings read alike, the source gives them in different places.

What was measured:
[1] = test system: PC-3 prostate cancer cell line; assay: Annexin V-FITC/PI apoptosis with TXT or CDDP, PC-3; type: cell-based, human; details: PC-3, 48 hrs
Text: (§1) The present invention is not limited to any mechanism. Indeed, a mechanistic understanding of the invention is unnecessary to practice (make and use) the present compositions and methods.

UM-SCC-23 = assay: 6-day MTT cell growth, UM-SCC-23; type: cell-based, human; details: read-out: IC50, inhibition of cell growth
Protocol: (§2) UM-SCC and human fibroblast cell lines were continuously exposed to varying concentrations of (−)-gossypol in 6-day MTT cell survival assays. Control wells contained media (DMEM) with vehicle alone. For each data point n=5.
(§3) Ten squamous cell carcinoma cell lines established at the University of Michigan (UM-SCC) and three human fibroblast lines were grown in Dulbecco's modified Eagle's medium (DMEM) supplemented with 10% fetal bovine serum. UM-SCC cell lines originated from the larynx (n=2; UM-SCC-12, -23), oral cavity/oropharynx (n=5; UM-SCC-1, -6, -14A, -74B, -81B), hypopharynx (n=1; UM-SCC-22A) and metastases from laryngeal cancers (n=2; UM-SCC-17B, -25). Human fibroblast cell lines originated from surgical specimens (fibroblast cell lines 2 and 3) and neonatal foreskin samples (fibroblast cell line 1).
(§4) Logarithmically growing cell lines were cultured, washed, counted, and plated at 5,000-15,000 cells per well in duplicate wells of 96-well plates and incubated in DMEM overnight. […] The MTT assay measures cell survival based on mitochondrial conversion of MTT from a soluble tetrazolium salt into an insoluble colored formazan precipitate, which is dissolved in dimethyl sulfoxide and quantitated by spectrophotometry. […] Percent absorbance relative to control was plotted as a linear function of drug concentration.

UM-SCC-17B = assay: 6-day MTT cell growth, UM-SCC-17B; type: cell-based, human; details: read-out: IC50, inhibition of cell growth
Protocol: as §2, §3, §4

[2] = test system: Fib-1 (fibroblast cell line 1); assay: 6-day MTT cell growth, Fib-1; type: cell-based, human; details: read-out: IC50, inhibition of cell growth
Protocol: as §2, §3, §4

MDA-MB-231 cells = assay: 5 day MTT cell growth assay, MDA-MB-231; type: cell-based, human; details: breast cancer cell lines with high levels of Bcl-XL, FIG. 12
Protocol: For example, the ability of gossypol compounds to inhibit MDA-MB-231 cell growth was tested in a 5 day MTT assay.
Cells were seeded in 24 or 96-well-plates and gossypol compounds were prepared at 2-10 fold dilutions in suitable medium. Inhibition of cell viability was determined by treating the cells with the gossypol compounds for 24 hrs. […] Inhibition of cell growth was determined by treating cells with gossypol compounds for 3-6 days. […] In some embodiments, MTT assays are used to determine cell inhibition.
Absorbance at 540 nm is used to measure the amount of formazan product.

UM-SCC-12 [3] = assay: 6-day MTT cell growth, UM-SCC-12; type: cell-based, human; details: read-out: IC50, inhibition of cell growth
Protocol: as §2, §3, §4

PARP protein = PARP protein cleavage; type: cell-based; details: compared under identical doses
UM-SCC-12 [4] = assay: Trypan blue exclusion cell death, UM-SCC-12; type: cell-based, human; details: 10 μM, 48 hour
Protocol: Cells were seeded in 24 or 96-well-plates and gossypol compounds were prepared at 2-10 fold dilutions in suitable medium. […] Cell viability was then determined by the trypan-blue assays. Inhibition of cell growth was determined by treating cells with gossypol compounds for 3-6 days. Cell inhibition was determined using XTT. In some embodiments, MTT assays are used to determine cell inhibition.

UM-SCC-22A = assay: 6-day MTT cell growth, UM-SCC-22A; type: cell-based, human; details: read-out: IC50, inhibition of cell growth
Protocol: as §2, §3, §4

HNSCC cell lines = assay: 6-day MTT cell survival, mean over HNSCC cell lines; type: cell-based, human
UM-SCC-14A = assay: 6-day MTT cell growth, UM-SCC-14A; type: cell-based, human; details: read-out: IC50, inhibition of cell growth
Protocol: as §2, §3, §4

UM-SCC-12 [5] = assay: Flow cytometric TUNEL apoptosis assay, UM-SCC-12; type: cell-based, human; details: 10 μM, 48-hour
Protocol: (§5) Briefly, FIGS. 24A-24C show apoptosis after (−)-gossypol as measured by a fluorescent flow cytometric TUNEL assay. Open peaks represent BrdU labeling of untreated cells. Shaded peaks indicate BrdU labeling of cell populations following 48-hour treatment with 10 μM (−)-gossypol; FIG. 24A, UM-SCC-cell lines with wild type p53; FIG. 24B, UM-SCC-cell lines with mutant p53; and FIG. 24C normal fibroblast cells.
(§6) Apoptosis of UM-SCC cell lines following (−)-gossypol treatment was quantitatively detected by enzymatic labeling of DNA strand breaks using terminal deoxynucleotidyltransferase (TdT) and Alexa Fluor-BrdUTP, known as the TdT-UTP nick end-labeling (TUNEL) assay by flow cytometry. Cells were exposed to (−)-gossypol for 48 hours, harvested, fixed and TUNEL stained according to the manufacturer's protocol (Molecular Probes Inc., Eugene, Oreg.). Ten thousand cells were analyzed per sample using excitation of Alexa Fluor at 488 nm. Apoptotic index (AI) was defined as percent of apoptotic cells in the treatment population minus that in the vehicle control population.

Bcl-2 = target: T1, Bcl-2 (Homo sapiens, UniProt P10415); assay: FP binding assay, Flu-Bad-25 peptide and GST-fusion Bcl-2 (FIG. 4, 45); details: FIG. 4
T1 construct: purchased Santa Cruz Biotechnology
T1 sequence (P10415 1-205 limits assumed): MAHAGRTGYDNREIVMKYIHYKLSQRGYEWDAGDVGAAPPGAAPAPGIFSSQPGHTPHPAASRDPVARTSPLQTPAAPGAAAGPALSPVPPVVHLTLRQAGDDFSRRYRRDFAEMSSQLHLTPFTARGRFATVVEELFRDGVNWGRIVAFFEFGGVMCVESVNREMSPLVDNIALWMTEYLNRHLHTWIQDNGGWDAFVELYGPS

DU145 = assay: MTT-based 5-day cell proliferation, DU145; details: DU145, FIG. 42
Text: as §1

fibroblast cell lines = assay: Flow cytometric TUNEL apoptosis assay, fibroblast cell lines; type: cell-based, human; details: 10 μM, 48-hour
Protocol: as §5, §6

Bcl-XL = target: T2, Bcl-XL (Homo sapiens, UniProt Q07817, DEL45-84); assay: FP binding assay, Flu-Bid 21-residue peptide and Bcl-XL (FIG. 5, 46)
T2 construct: His-tag (N); made in house
T2 sequence (Q07817 with tags, fused parts or gaps DEL45-84 limits assumed): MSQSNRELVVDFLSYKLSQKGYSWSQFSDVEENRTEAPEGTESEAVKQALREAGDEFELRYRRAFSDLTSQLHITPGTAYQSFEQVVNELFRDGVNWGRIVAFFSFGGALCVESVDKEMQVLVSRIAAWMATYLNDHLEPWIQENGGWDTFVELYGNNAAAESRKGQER

[6] = test system: human breast cancer MDA-MB-231 (2LMP) xenograft; details: Table 8
UM-SCC-74B = assay: 6-day MTT cell growth, UM-SCC-74B; type: cell-based, human; details: read-out: IC50, inhibition of cell growth
Protocol: as §2, §3, §4

[7] = test system: MCF-7 breast cancer cell line; assay: Growth inhibition with TAXOL in fixed ratio, MCF-7; type: cell-based, human; details: combinations in a fixed ratio to TAXOL
[8] = 8 Gy radiation with 4 μM gossypol
[9] = 8 Gy radiation with 5 μM gossypol

Q: Which results are given for `Cc1cc2c(C(C)C)c(O)c(O)c(C=O)c2c(O)c1-c1c(C)cc2c(C(C)C)c(O)c(O)c(C=O)c2c1O` [(−)-gossypol]?
A: effect on activity of docetaxel and cisplatin [1]: enhanced the activities of docetaxel and cisplatin (CDDP) in inhibiting cell growth and inducing apoptosis; Combination Index (CI) (PC-3 cells; [8]): 0.34; Dose Reduction Index (DRI) (PC-3 cells; [8]): 4.3; Combination Index (CI) (PC-3 cells; [9]): 0.27; Dose Reduction Index (DRI) (PC-3 cells; [9]): 6.1; reduction in colony formation from controls (PC-3 cells; with 6 Gy X-ray): 10 fold; reduction in colony formation from controls (PC-3 cells; with 8 Gy X-ray): 20 fold; IC50 (UM-SCC-23): 1.5 µM; IC50 (UM-SCC-17B): 5 µM; IC50 [2]: 20 µM; potency in inhibition of cell growth relative to (+)-gossypol, first statement (MDA-MB-231 cells): 2 times; potency in inhibition of cell growth relative to (+)-gossypol, second statement (MDA-MB-231 cells): 5-10 times; IC50 (UM-SCC-12 [3]): 4 µM; cleavage of PARP protein (PARP protein): more cleavage of PARP protein; surviving (trypan blue excluding) fraction relative to untreated controls (UM-SCC-12 [4]): 14%; IC50 (UM-SCC-22A): 3 µM; IC50 (HNSCC cell lines): 5.57 ± 2.57 µM; IC50 (UM-SCC-14A): 11 µM; apoptotic index (AI) (UM-SCC-12 [5]): 27.2%; inhibition of binding between Bid BH3 peptide and Bcl-2 (Bcl-2): directly inhibit binding between Bid BH3 peptide and Bcl-2; cytotoxicity (DU145): very limited effect; induction of apoptosis (fibroblast cell lines): no induction of apoptosis; inhibition of binding between Bad BH3 peptide and Bcl-XL (Bcl-XL): directly inhibit binding between Bad BH3 peptide and Bcl-XL; tumor growth inhibition ([6]; (−)-gossypol 7.5 mg/kg p.o. in combination with docetaxel 7.5 mg/kg i.v., p < 0.01): there was more than 90% tumor; tumor growth inhibition ([6]; (−)-gossypol 30 mg/kg p.o. q day for 4 weeks, alone): 30 mg/kg of G-, there was 40%; anti-tumor effect ([6]; (−)-gossypol 15 or 7.5 mg/kg p.o. alone): did not achieve significant anti-; tumor growth inhibition ([6]; (−)-gossypol at any of the three doses (7.5, 15, 30 mg/kg p.o.) in combination with docetaxel 7.5 mg/kg i.v.): all achieved significant tumor; tumor regression, number of mice ([6]; (−)-gossypol in combination with docetaxel, 8 mice per group): There was tumor regression in 3 mice; inhibition of tumor growth by (−)-gossypol alone ([6]; MDA-231 fat-pad xenografts, Balb/c nude mouse, 7.5, 15 or 30 mg/kg p.o. q day for 4 weeks, alone): There was dose-dependent; IC50 (UM-SCC-74B): 4 µM; IC50 [7]: 8.71 µM
